Experiments:
HCC-1937 = experiment: Colony formation assay, HCC-1937; format: cell-based, human; details: for IC50: Homo sapiens, HCC1937, 48 h, read-out: IC50 (concentration required to decrease colony formation by 50%)
Experimental: (§1) Depending on the cell line (and plating efficiency), 200-350 cells were seeded into each well of a 6-well plate. […] Thereafter, the drugs were removed, fresh growth medium was added, and the cells were kept in culture undisturbed for 12-16 days, during which time the surviving cells spawned colonies of descendants. Colonies (defined as groups of >50 cells) were visualized by staining for 4 hours with 1% methylene blue (in methanol), and then were counted.
The cytotoxic potency of TMZ-POH, was analyzed by colony formation assay (CFA) in a variety of human breast cancer cell lines and compared to the cytotoxicity of TMZ. We used estrogen receptor positive cells MCF7 and T47D, the triple-negative lines MDA-MB-231, MDA-MB-468, and HCC-1937, and a brain-seeking variant of the 231 cell line, MDA-MB-231-br.

U87 human glioma cells = experiment: MTT cytotoxicity assay, U87 glioma cells; details: U87; result in words
Text: (§2) In vitro efficacy of the present composition can be determined using methods well known in the art. For example, the cytoxicity of the present monoterpene (or sesquiterpene) and/or the therapeutic agents may be studied by MTT [3-(4,5-dimethylthiazol-2-yl)-2,5-diphenyl tetrazolium bromide] cytotoxicity assay. MTT assay is based on the principle of uptake of MTT, a tetrazolium salt, by metabolically active cells where it is metabolized into a blue colored formazon product, which can be read spectrometrically. J. of Immunological Methods 65: 55 63, 1983. The cytoxicity of the present monoterpene (or sesquiterpene) derivative and/or the therapeutic agents may be studied by colony formation assay. Functional assays for inhibition of VEGF secretion and IL-8 secretion may be performed via ELISA. Cell cycle block by the present monoterpene (or sesquiterpene) derivative and/or the therapeutic agents may be studied by standard propidium iodide (PI) staining and flow cytometry. Invasion inhibition may be studied by Boyden chambers. In this assay a layer of reconstituted basement membrane, Matrigel, is coated onto chemotaxis filters and acts as a barrier to the migration of cells in the Boyden chambers. Only cells with invasive capacity can cross the Matrigel barrier. Other assays include, but are not limited to cell viability assays, apoptosis assays, and morphological assays.
(§3) First cytotoxicity assays were carried out after cells were treated with dimethyl-celecoxib (DMC) alone.
(§4) Then U87, A172 and U251 cells were treated with dimethyl celecoxib bisPOH carbamate (POH−DMC) (e.g., synthesized by the method in Example 1), and the MTT cytotoxicity assays performed (FIG. 2).
(§5) First cytotoxicity assays were carried out after cells were treated with temozolomide (TMZ) alone, the standard alkylating agent used in the treatment of malignant gliomas.
(§6) Then TMZ-resistant glioma cell lines U87, A172 and U251 cells were treated with TMZ-POH (e.g., synthesized by the method in Example 3).
(§7) To compare the cytotoxicity of Rolipram POH Carbamate (POH-Rolipram) (e.g., synthesized by the method in Example 5) with rolipram, […] inducing differentiation and apoptosis in glioma cells, A172, U87, U251 and LN229 human glioma cells were treated with either POH-Rolipram or rolipram for 48 hours.

[1] = tested on: D3H2LN cells implanted into the brains; experiment: Intracranial breast cancer tumor model in nude mice; format: in vivo; details: for median survival: TMZ-POH s.c., TMZ via gavage
Text: In FIG. 27A, all surviving animals were imaged again on days 21, 28, and 36. […] Arrow labeled Rx indicates the time period of treatment.
All animal protocols were approved by the Institutional Animal Care and Use Committee (IACUC) of University of Southern California, and all rules and regulations were followed during experimentation on animals. Athymic mice (Harlan, Inc., Indianapolis, Ind.) were implanted intracranially with 2×10^5 cells. A subline of MDA-MB-231 cells called D3H2LN was used, which was transfected with the firefly luciferase gene and had been selected for aggressive growth and metastasis in vivo. Ten days after intracranial implantation, efficient tumor take was confirmed in all animals via non-invasive whole-body bioluminescent imaging. For this purpose, mice were intravenously injected with 50 mg/kg D-Luciferin (Perkin Elmer, Waltham, Mass.) and imaged using the Xenogen IVIS-200 Imaging System (Caliper/Perkin Elmer). Images were analyzed by region-of-interest (ROI) analysis using the Living Image software package (Caliper/Perkin Elmer) to quantitate light output (radiance, i.e., photons per second per square centimeter per steradian).
Group 1 was the control group that received vehicle only (45% glycerol, 45% ethanol, 10% DMSO) via subcutaneous injection. Group 2 was the experimental group that received 25 mg/kg TMZ-POH via subcutaneous (s.c.) injection. Group 3 was the comparison group and animals received 25 mg/kg TMZ via gavage. Treatment was once per day for a period of 10 days (i.e., 10 treatments total). Thereafter, all surviving animals were imaged again, once per week.
We used D3H2LN cells, which are a bioluminescent variant of the MDA-MB-231 cell line with aggressive tumor growth in mice. These cells were implanted into the brains of nude mice, and 10 days later all animals were imaged for luciferase expression in order to confirm efficient tumor take.
Animals were distributed into three groups and treated once daily for 10 days with vehicle alone (control), 25 mg/kg TMZ-POH, or 25 mg/kg TMZ.

A172 human glioma cells = experiment: MTT cytotoxicity assay, A172 glioma cells; details: A172; result in words
Text: as §2, §3, §4, §5, §6, §7

231-MGMT-2 = experiment: Colony formation assay, MGMT-transfected 231-MGMT-2; format: cell-based, human; details: for IC50: Homo sapiens, 48 h, read-out: IC50 (concentration required to decrease colony formation by 50%)
Experimental: as §1
In the case of O6-BG treatment, cells were pretreated with 10 μM O6-BG for one hour before addition of TMZ or TMZ-POH. After 24 hours, another 10 μM O6-BG was added to the medium. Another 24 hours later, drug-laced medium was removed, and fresh medium without drugs was added. Thereafter, cells remained undisturbed until staining with methylene blue.
MDA-MB-231 cells were co-transfected in 6-well plates with the use of Lipofectamine 2000 (Invitrogen, Carlsbad, Calif.) according to manufacturer's instructions. 2 μg pSV2MGMT (containing the human MGMT cDNA) was combined with 0.2 μg pSV2neo (containing the neomycin gene for selection of cells in G418). Both plasmids were provided by Bernd Kaina (Mainz, Germany). Individual clones of transfected cells were selected in medium containing 750 μg/mL G418 and propagated in 250 μg/mL G418. G418 was obtained as G418 disulfate salt from Sigma-Aldrich and dissolved in PBS at 75 mg/mL. Selection medium was removed from cells several days before experimental drug treatment.
To investigate the latter, we stably transfected MGMT-negative MDA-MB-231 cells with MGMT cDNA and isolated individual clones. […] Both clones were treated with increasing concentrations of TMZ-POH and TMZ and analyzed by CFA.

[2] = 25 mg/kg once daily for 10 days

Cn1nnc2c(C(N)=O)ncn2c1=O [TMZ, temozolomide, reference compound] was tested, and the IC50 (HCC-1937) was 186 µM, the “cytotoxicity (MTT assay)” value (U87 human glioma cells) was “minimal cytotoxicity” and the “additional survival after the termination of treatment” value [1, 2] was 8 days. The median survival [1, 2] was 28 days, the “cytotoxicity (MTT assay)” value (A172 human glioma cells) was “minimal cytotoxicity” and the IC50 (231-MGMT-2) was 212 µM.
In the case of C=C(C)[C@@H]1CC=C(COC(=O)NC(=O)c2ncn3c(=O)n(C)nnc23)CC1 [TMZ-POH], the IC50 (HCC-1937) is reported as 31 µM, the “Differential (−fold)” value (HCC-1937; fold increase in potency of TMZ-POH compared to TMZ, HCC-1937) is reported as 6.0 −fold and the “colony formation (CFA)” value (HCC-1937; low micromolar concentrations, 48 hours, in words) is reported as “prevented colony formation”. For the same compound, the “cytotoxicity (MTT assay)” value (U87 human glioma cells) was “substantially higher kill rates”, the “additional survival after the termination of treatment” value [1, 2] was 30 days and the median survival [1, 2] was 50 days. For the same compound, the “status of animals by day 36” value ([1]; 25 mg/kg once daily for 10 days, in words) was “still alive with no obvious signs of distress”, the “bioluminescent imaging after 10-day treatment period” value ([1]; 25 mg/kg once daily, in words) was “only small changes in radiance” and the “increase of ROI radiance” value ([1]; between days 10 and 21, representative mouse, 25 mg/kg once daily 10 days) was 1.7 fold. The ROI radiance ([1]; day 10, representative mouse) was 1.11E7 photons per second per square, the ROI radiance ([1]; day 21, representative mouse) was 1.92E7 photons per second per square and the ROI radiance ([1]; day 43, representative mouse) was 1.88E8 photons per second per square. For the same compound, the “cytotoxicity (MTT assay)” value (A172 human glioma cells) was “substantially higher kill rates”, the IC50 (231-MGMT-2) was 34 µM and the “Differential (−fold)” value (231-MGMT-2; fold increase in potency of TMZ-POH compared to TMZ, 231-MGMT-2) was 6.2 −fold.
